Read-outs that look alike come from different tables or passages of the source. No end group written: not given here.
What was measured:
PRV = format: cell-based, pseudorabies virus; details: TCID50 based, R = A2/A1 × 100%; 50 μg/ml peptide (method says 50 μM, 1 h incubation); Vero and PK-15 cells; mean
PEDV = format: cell-based, porcine epidemic diarrhea virus
[1] = rat, in vivo, 2 mg/kg
in vivo = details: both, Wistar, rat, 2 mg/kg

FKCRRWQWRMKKLGAPSITCVRRAF [lactoferricin]
virus survived ratio of PRV (PRV): 82% | virus survived ratio of PEDV (PEDV): 93%

FFHHIFRGIVHVGKTIHRLVTG [Piscidin 1]
AUC0−∞ [1]: 78.40 ± 8.64 µg·h/g | CLb (body clearance) [1]: 0.433 ± 0.13 mL/min/kg | Cmax [1]: 1.67 ± 0.19 µg/g | Ke (elimination rate constant) [1]: 0.034 ± 0.06 h⁻¹ | MRT [1]: 36.45 ± 2.45 h | Ratio of AUC0−∞, ileum content / serum [1]: 4.14 | Ratio of CLb, ileum content / serum [1]: 0.273 | Ratio of Cmax, ileum content / serum [1]: 0.71 | Ratio of Ke, ileum content / serum [1]: 1.17 | Ratio of MRT, ileum content / serum [1]: 1.21 | Ratio of T1/2, ileum content / serum [1]: 0.858 | Ratio of Tmax, ileum content / serum [1]: 24.38 | T1/2 (elimination half-life) [1]: 20.16 ± 1.76 h | Tmax [1]: 8.12 ± 1.02 h | AUC(0-inf) (in vivo; im): 19000 ± 1370 ng·h/mL | Cmax (in vivo; im): 2370 ± 160 ng/mL | MRT (in vivo; im): 30.1 ± 2.46 h | Tmax (in vivo; im): 0.333 ± 0.151 h | bioavailability (in vivo; im): 73.2% | half-life (in vivo; im): 23.5 ± 2.43 h | AUC(0-inf) (in vivo; iv): 25900 ± 3210 ng·h/mL | MRT (in vivo; iv): 22.8 ± 2.43 h | clearance (in vivo; iv): 1.12 mL/min/kg | half-life (in vivo; iv): 17 ± 1.43 h | AUC(0-inf) (in vivo; po): 9630 ± 870 ng·h/mL | Cmax (in vivo; po): 730 ± 80 ng/mL | MRT (in vivo; po): 26.8 ± 2.89 h | Tmax (in vivo; po): 0.5 ± 0.23 h | bioavailability (in vivo; po): 37.2% | half-life (in vivo; po): 19.5 ± 1.67 h
